The record followed here is patent EP4458804A1, “METHOD FOR PRODUCING AN OBJECT, PHENALEN-1-ONE COMPOUND AND USE THEREOF” (TriOptoTec GmbH, priority 2023, dated 2024).

Data set [1] relates to S.aureus ATCC 6538. Put plainly: Antibacterial activity of impregnated films, modified ISO 22196 with illumination (Beispiele 11-16, 25). It is filed as cell-based. From the text: Die Bestimmung der antimikrobiellen Aktivität erfolgte nach einer modifizierten Version der ISO 22196:2011-08 ("Messung von antibakterieller Aktivität auf Kunststoff- und anderen porenfreien Oberflächen", Ausgabedatum: 2011-08).
Bei der Testdurchführung wurde ein dünner Flüssigkeitsfilm, in dem die Bakterien enthalten sind (1,25 x 10^4 /cm^2), direkt auf die Probenkörper (3 x 3 cm) aufgebracht. Direkt nach Beimpfung wurden von der Nullprobe die Bakterien von den Probenkörperoberflächen mittels Ultraschall und Vortexen abgelöst und die Keimzahl (KBE (engl. CFU), Kolonie-bildende Einheit) bestimmt (t0-Wert).
Nach 4h wurden überlebende Bakterien von den Probenkörperoberflächen mittels Ultraschall und Vortexen abgelöst und die Keimzahl bestimmt (t4-Wert).
Im Unterschied zu der in der ISO 22196:2011-08 beschreibenen Methode wurde das Inokulum nicht mit einer Folie abgedeckt und die Inkubationszeit wurde von 24 auf 4 Stunden reduziert. Weiterhin wurden die Probenkörper der Proben 3 und 4 mit Licht der Intensität 20mW/cm2 für 10min belichtet, um eine biozide Wirkung nach Bestrahlung mit elektromagnetischer Strahlung zu bestimmen.
Verwendet wurden TPU Folienstücke, die nach dem in Beispiel 4 beschriebenen Verfahren mit Rezeptur 1 behandelt wurden. Rezeptur 1 wurde hergestellt nach Beispiel 2. […] Der Test wurde in Anlehnung an ISO 22196 nach oben beschriebener Methode durchgeführt.
TPU-Folienstücke wurden ebenfalls nach dem in Beispiel 4 beschriebenen Verfahren mit verschiedenen Rezepturen behandelt, die gemäß Beispiel 2 hergestellt wurden. Die Farbstoffkonzentration in der Imprägnierlösung betrug jeweils 1 mM F-24b. Der Test wurde in Anlehnung an ISO 22196 nach oben beschriebener Methode durchgeführt.
Die Farbstoffkonzentration in der Imprägnierlösung betrug jeweils 1 mM.
Die Photokatalysator-Konzentration von F-24b wurde variiert.
Es wurde ein Bakterientest in Anlehnung an ISO 22196 nach oben beschriebener Methode durchgeführt.

Data set [2] in a line: Comparative examples 23-25: impregnation of unsuitable plastics or with a fluorescent dye, visual evaluation. To be noted: TPU Folien. It is filed as physicochemical. As to the method: Die Farbstoffkonzentration in der Imprägnierlösung betrug jeweils 1 mM bei Phenalen-1-on- und Curcuminderivaten, 0,1 mM bei Prophycenderivaten.
Es wurden 0,2 mm starke Polycarbonatfolien eingesetzt und mit Imprägnierlösungen enthaltend die Photokatalysatoren F-24b, F-64a oder F-73 behandelt.
Es wurden TPU Folien eingesetzt und mit einer Imprägnierlösung enthaltend den Farbstoff 2-Chloro-6-(3-hydroxypropylamino)-1-phenalenon (CAS 113722-81-9) behandelt.

A short description of data set [3]: Incorporation of photocatalysts into TPU films versus process time, absorption spectroscopy against blank film (Beispiele 7a-9b). The class given is physicochemical. To be noted: Rezeptur 1. As to the method: Im nächsten Schritt wurde die Verwendbarkeit der verschiedene Photokatalysatorklassen, ausgewählt aus Phenalen-1-on-Derivaten, Curcumin-Derivaten und Porphycen-Derivaten, mit unterschiedlichen Eigenschaften - von neutral unpolar bis ionisch polar - auf Ihre Verwendbarkeit und Wirkung im Verfahren untersucht.
Zur Beurteilung der optimalen Prozesszeit bei Einsatz der Photokatalysatoren, wurden TPU Folienstücke nach Beschreibung in Beispiel 4 zu je 1, 2, 5 und 10 min in den Imprägnierlösungen behandelt, gegebenenfalls auch 30 und 60 min bei undeutlichen Ergebnissen.
Als Basisformulierung wurde Rezeptur 1 nach Beispiel 2 verwendet.
Nach der angegebenen Prozesszeit wurden die Folie entnommen, mit Wasser gewaschen und für 1h bei 40°C getrocknet/abgelüftet.
Die Folien wurden durch Absorptionsspektroskopie gegen ein Blank-Folienstück direkt vermessen, beim Maximum der Absorption des Photokatalysators. Dabei ergaben sich in Abhängigkeit der Prozesszeit folgende Werte, die in den Tabellen 40 bis

Data set [4] relates to S.aureus ATCC 6538. Put plainly: Antibacterial activity of impregnated films, modified ISO 22196 with illumination (Beispiele 11-16, 25). It is filed as cell-based. To be noted: Beispiel 14; TPU film; Rezeptur 1 (nach Beispiel 1); 1 mM photocatalyst in impregnation solution; light 20mW/cm2 10min.
A short description of data set [5]: Leaching test A: screening immersion 24 h, UV-VIS of supernatant (Beispiel 10 A). Also on record: Abs. nach Auswaschen: unit not given here. The class given is physicochemical. Conditions: medium Wasser; for Berechneter Verlust in %: Rezeptur 1 nach Beispiel 1; for Abs. nach Auswaschen: Rezeptur 1 nach Beispiel 1, supernatant. Here is the method: Um das Auswaschen der verschiedenen Farbstoffe in den Kunststofffolien zu beurteilen, wurde ein Immersionstest in deionisiertem Wasser mit einem pH-Wert von (6 ± 1) (oder gegebenenfalls anderen Lösungsmitteln) und einer Wassertemperatur von (22 ± 3) °C für 24 Stunden durchgeführt.
Dazu wurde ein Folienstück definierter Größe (3 cm x 3 cm) imprägniert (nach Rezeptur 1, Beispiel 1) und anschließend für 24 Stunden in eine definierte Menge deionisiertem Wasser (12,0 mL) gegeben und durch eine Schüttelplatte in Bewegung gehalten. Nach der angegeben Immersionszeit wurde die Folie entnommen und der Überschuss im UV-VIS Spektrometer vermessen, um die ausgewaschene Menge an Farbstoff zu bestimmen. Die Menge wird durch die definierte Größe der Folie und definierte Flüssigkeitsmenge auf einen Quadratzentimeter zurückgerechnet.
Dieser Immersionstest diente dazu, das Auswaschverhalten verschiedener Farbstoffe aus verschiedenen Kunststofffolien zu beurteilen. Weiter sollte er dabei helfen, verschiedene Farbstoffklassen oder verschiedene Farbstoffderivate einer Farbstoffklasse bezüglich dieser Charakteristik miteinander zu vergleichen.
Die zugeschnittenen Folien werden in einem geeigneten Behälter vollständig mit dem Prüfmedium (typischerweise deionisiertes Wasser) bedeckt. Anschließend wird der Behälter zugedeckt und auf die Schüttelplatte aufgebracht. Bei geringer Geschwindigkeit der Platte wird für 24 Stunden gewartet. Nach der Immersion wurden 3 mL des Überstandes durch Absorptionsspektroskopie vermessen.
Die Auswertung erfolgte über das Verhältnis der max. Absorptionswerte einer reinen Farbstofflösung definierter Konzentration und des vermessenen Überstandes. Die Ergebnisse sind in Tabelle 50 dargestellt. Tabelle 50: Auswaschverhalten verschiedener Photokatalysatoren nach Immersionstest A

The mark [6] stands for this setting: Beispiel 7a neutral Phenalen-1-one, TPU film, process time 1 min, absorption at photocatalyst maximum vs blank film.
Setting [7] is: Beispiel 7a neutral Phenalen-1-one, TPU film, process time 2 min.
Setting [8] is: Beispiel 7a neutral Phenalen-1-one, TPU film, process time 5 min.
Where [9] appears, read: Beispiel 7a neutral Phenalen-1-one, TPU film, process time 10 min.
[10] abbreviates: Beispiel 9a neutral Porphycenderivate mit Hydroxyfunktion, TPU film, process time 10 min.
[11] abbreviates: TPU Folie, Beispiel 7d, Tabelle 43.
The mark [12] stands for this setting: TPU Folie, Beispiel 8a, Tabelle 44.

A value given as a limit tells only on which side of the number the result lay.

As for `O=C1C(Cl)=Cc2ccc(NCCCO)c3cccc1c23` [2-Chloro-6-(3-hydroxypropylamino)-1-phenalenon, reference compound], the “photodynamische Inaktivierung von S.aureus gegenüber den Kontrollen” value in data set [1] (TPU Folien dyed with the fluorescent dye (Beispiel 25)) is given as “keine photodynamische Inaktivierung”. Also, the “Färbung der Folie” value in data set [2] (30 min Einwirkzeit) is listed as “homogen pink gefärbte Folien”. The “Entfernbarkeit der Färbung” value in data set [2] (Abreiben mit feuchtem Tuch, Waschen mit Wasser) is “weder durch Abreiben mit einem feuchten Tuch noch durch Waschen mit Wasser entfernt”.
For `NCCCOC1=CC(=O)c2cccc3cccc1c23` [F-08], the “Abs. 1 min” value in data set [3] (setting [6]) is 0,003. In data set [3] (setting [7]), the “Abs. 2 min” value was 0,015. Also, the “Abs. 5 min” value in data set [3] (setting [8]) is 0,016. The “Abs. 10 min” value in data set [3] (setting [9]) is 0,023. For the same molecule, the “Log10 Reduktion Hauptprobe” value in data set [1] (Beispiel 14, TPU film, Rezeptur 1 (nach Beispiel 1), 1 mM photocatalyst in impregnation solution, light 20mW/cm2 10min) is listed as 4,0 ± 0,3 log10.
Take `O=C1C(S(=O)(=O)O)=Cc2cccc3cccc1c23` [F-01a]: the “Log10 Reduktion Hauptprobe” value in data set [4] was 1,4 ± 0,4 log10.
With `COCCC1=Cc2nc1ccc1[nH]c(cc1CCOC)c1nc(c(OC)cc3[nH]c2cc3CCOC)C(CCOC)=C1` [F-68], the “Abs. 10 min” value in data set [3] (setting [10]) was 1,01. The “Abs. 30 min” value in data set [3] (Beispiel 9a neutral Porphycenderivate mit Hydroxyfunktion, TPU film, process time 30 min) is above 1. Also, the “Abs. 60 min” value in data set [3] (Beispiel 9a neutral Porphycenderivate mit Hydroxyfunktion, TPU film, process time 60 min) is above 1.
In the case of `NCCOc1ccc2c3c(cccc13)C=CC2=O` [F-09], in data set [3] (setting [6]), the “Abs. 1 min” value was 0,227. The “Abs. 2 min” value in data set [3] (setting [7]) is 0,158. Also, the “Abs. 5 min” value in data set [3] (setting [8]) is recorded as 0,123. In addition, the “Abs. 10 min” value in data set [3] (setting [9]) is 0,263.
Consider `COCCC1=Cc2nc1ccc1[nH]c(cc1CCOC)c1nc(c(OCCC(NC(=O)OC(C)(C)C)C(=O)O)cc3[nH]c2cc3CCOC)C(CCOC)=C1` (stereo not drawn) [F-78b], for which the “Abs. 10 min” value in data set [3] (setting [10]) is recorded as 0,670.
Regarding `CCOC1=CC(=O)c2cccc3cccc1c23` [F-02], in data set [3] (setting [11]), the “Abs. 1 min” value is reported as 0,125, the “Abs. 2 min” value is recorded as 0,229, the “Abs. 5 min” value is on record as 0,475 and the “Abs. 10 min” value is given as 0,590. In data set [5] (plastic Surlyn), the “Berechneter Verlust in %” value was 2,7% and the “Abs. nach Auswaschen” value was 0,009.
As for `O=C1C=Cc2cc(S(=O)(=O)O)cc3cccc1c23` [F-01b], in data set [3] (setting [11]), the “Abs. 10 min” value is recorded as 0,008, the “Abs. 30 min” value is given as 0,011 and the “Abs. 60 min” value is recorded as 0,065.
Regarding `NCCCOc1ccc2cccc3c2c1C(=O)C=C3` [F-10], the “Abs. 1 min” value in data set [3] (setting [6]) is recorded as 0,044. For the same molecule, the “Abs. 2 min” value in data set [3] (setting [7]) is 0,011. Moreover, in data set [3] (setting [8]), the “Abs. 5 min” value is reported as 0,062. The “Abs. 10 min” value in data set [3] (setting [9]) was 0,087.
On to `NCCOc1ccc(/C=C/C(=O)C(C(=O)/C=C/c2ccc(OCCN)cc2)c2ccccc2)cc1` [F-64c], for which, in data set [3] (setting [12]), the “Abs. 5 min” value is on record as 0,61 and the “Abs. 10 min” value was above 1.
With “9-Acetoxy-2,7,12,17-tetra-(beta-methoxyethyl)porphycen [F-66]”, in data set [3] (Beispiel 9a, TPU film, process time 1 min, used as 0,1 mM Lösung), the “Abs. 1 min” value is listed as 0,008. For the same molecule, the “Abs. 2 min” value in data set [3] (Beispiel 9a, TPU film, process time 2 min, used as 0,1 mM Lösung) was 0,020. Besides, the “Abs. 5 min” value in data set [3] (Beispiel 9a, TPU film, process time 5 min, used as 0,1 mM Lösung) is reported as 0,044. Moreover, the “Abs. 10 min” value in data set [3] (Beispiel 9a, TPU film, process time 10 min, used as 0,1 mM Lösung) was 0,058. Besides, in data set [5] (plastic TPU), the “Berechneter Verlust in %” value was 2,0% and the “Abs. nach Auswaschen” value is reported as 0,021.
With `COCCC1=Cc2nc1ccc1[nH]c(cc1CCOC)c1nc(c(OCCCN)cc3[nH]c2cc3CCOC)C(CCOC)=C1` [F-71], the “Abs. 1 min” value in data set [3] (Beispiel 9a neutral Porphycenderivate mit Hydroxyfunktion, TPU film, process time 1 min) is reported as 0. In addition, the “Abs. 2 min” value in data set [3] (Beispiel 9a neutral Porphycenderivate mit Hydroxyfunktion, TPU film, process time 2 min) is on record as 0. For the same molecule, the “Abs. 5 min” value in data set [3] (Beispiel 9a neutral Porphycenderivate mit Hydroxyfunktion, TPU film, process time 5 min) was 0,032. For the same molecule, the “Abs. 10 min” value in data set [3] (setting [10]) is on record as 0,04; in data set [3] (Beispiel 9b cationic Porphycenderivate, TPU film, process time 10 min), 0,023. Also, the “Abs. 30 min” value in data set [3] (Beispiel 9b cationic Porphycenderivate, TPU film, process time 30 min) was 0,062. In addition, the “Abs. 60 min” value in data set [3] (Beispiel 9b cationic Porphycenderivate, TPU film, process time 60 min) was 0,114.
For the molecule `CC(Oc1ccc(OCC2=Cc3cccc4cccc(c34)C2=O)cc1)C(=O)O` (stereo not drawn) [F-20a], the “Abs. 1 min” value in data set [3] (setting [6]) is 0,020. In addition, the “Abs. 2 min” value in data set [3] (setting [7]) was 0,014. Besides, the “Abs. 5 min” value in data set [3] (setting [8]) is 0,020. The “Abs. 10 min” value in data set [3] (setting [9]) is on record as 0,035.
For the molecule `COc1cc(/C=C/C(=O)CC(=O)/C=C/c2cc(Br)c(OCCN)c(OC)c2)cc(Br)c1OCCN` [F-65], in data set [3] (setting [12]), the “Abs. 1 min” value is on record as 0,08 and the “Abs. 10 min” value is 0,87. Moreover, the “Log10 Reduktion Hauptprobe” value in data set [4] is given as 1,3 ± 0,1 log10.
Consider `O=C1C(COc2ccc(O)cc2)=Cc2cccc3cccc1c23` [F-12], for which, in data set [3] (setting [6]), the “Abs. 1 min” value is listed as 0,108. Besides, in data set [3] (setting [7]), the “Abs. 2 min” value is 0,349. Besides, the “Abs. 5 min” value in data set [3] (setting [8]) is given as 0,411. For the same molecule, in data set [3] (setting [9]), the “Abs. 10 min” value is above 1.
The corresponding values for `COC(=O)C(C)Oc1ccc(OCC2=Cc3cccc4cccc(c34)C2=O)cc1` (stereo not drawn) [F-19a] are above 1, above 1, above 1 and above 1.
